From patent US6602888B2, “Use of α1C specific compounds to treat benign prostatic hyperplasia” (Synaptic Pharmaceutical Corporation, priority 1992, dated 2003)
Structures can show the parent of a compound that is named as a salt. Where two headings read alike, the source gives them in different places. Values belong to the compound of their own block, whether it stands above or below them.

Key:
human 5HT1Dα receptor = molecular target: T1, human 5HT1Dα receptor (Homo sapiens, UniProt P28221); assay: [3H]serotonin competition binding, 5HT1Dα receptor
T1 construct: host or cells: LM(tk-) clonal cell line Ltk-8-30-84
Experimental: (§1) 5HT1Dα, 5HT1Dβ, 5HT1E, 5HT1F Receptors: The cell lysates of LM(tk−) clonal cell line stably transfected with the genes encoding each of these 5HT receptor-subtypes were prepared as described above. The cell line for the 5HT1Dα receptor, designated as Ltk-8-30-84, was deposited on Apr. […] The cell for the 5HT1Dβ receptor, designated as Ltk-11, was deposited on Apr. […] The cell line for the 5HT1E receptor, designated 5 HT1E-7, was deposited on Nov. […] The cell line for the 5HT1F receptor, designated L-5-HT1F, was deposited on Dec. […] These preparations were suspended in 50 mM Tris-HCl buffer (pH 7.4 at 37° C.) containing 10 mM MgCl2, 0.2 mM EDTA, 10 μM pargyline, and 0.1% ascorbate.

[1] = molecular target: T2, human histamine H2 receptor (Homo sapiens, UniProt P25021); assay: [3H]tiotidine binding, histamine H2 receptor; conditions: Table 2, cloned human receptor; read-out: Histamine H2 (pK1) (converted)
T2 construct: host or cells: COS-7, transient, DEAE-dextran
T2 sequence (P25021 whole entry): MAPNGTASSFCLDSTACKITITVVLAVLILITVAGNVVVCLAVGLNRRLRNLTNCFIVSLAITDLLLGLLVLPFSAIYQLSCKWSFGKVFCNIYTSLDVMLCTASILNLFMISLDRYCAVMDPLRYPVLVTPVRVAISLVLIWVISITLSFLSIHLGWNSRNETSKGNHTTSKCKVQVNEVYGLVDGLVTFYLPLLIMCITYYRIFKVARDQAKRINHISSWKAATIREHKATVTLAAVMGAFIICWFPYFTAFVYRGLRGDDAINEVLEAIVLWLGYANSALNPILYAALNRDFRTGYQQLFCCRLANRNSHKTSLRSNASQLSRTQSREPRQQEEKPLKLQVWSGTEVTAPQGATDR
Source text: The coding sequence of the human H2 receptor was obtained from a human placenta genomic library, and cloned into the cloning site of PCEXV-3 eukaryotic expression vector. The plasmid DNA for the H2 receptor is designated pcEXV-H2, and was deposited on Nov. […] This construct was transfected into COS-7 cells by the DEAE-dextran method.

[2] = molecular target: T3, human histamine H1 receptor (Homo sapiens, UniProt P35367); assay: [3H]mepyramine binding, histamine H1 receptor
T3 construct: host or cells: COS-7, transient, DEAE-dextran
T3 sequence (P35367 whole entry): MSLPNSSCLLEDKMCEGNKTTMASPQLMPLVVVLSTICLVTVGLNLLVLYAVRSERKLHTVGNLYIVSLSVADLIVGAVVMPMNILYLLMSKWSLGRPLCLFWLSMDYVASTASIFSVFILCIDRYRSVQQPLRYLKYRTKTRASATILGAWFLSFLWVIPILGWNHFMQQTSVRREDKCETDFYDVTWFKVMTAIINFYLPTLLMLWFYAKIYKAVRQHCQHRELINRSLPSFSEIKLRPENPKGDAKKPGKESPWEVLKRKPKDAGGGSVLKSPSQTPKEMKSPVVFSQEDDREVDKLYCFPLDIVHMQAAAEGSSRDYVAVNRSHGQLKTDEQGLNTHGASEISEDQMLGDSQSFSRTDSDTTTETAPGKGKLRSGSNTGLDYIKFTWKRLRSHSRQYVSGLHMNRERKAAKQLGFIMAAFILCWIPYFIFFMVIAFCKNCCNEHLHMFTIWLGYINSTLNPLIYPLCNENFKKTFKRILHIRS
Source text: The coding sequence of the human histamine H1 receptor, homologous to the bovine H1 receptor, was obtained from a human hippocampal cDNA library, and was cloned into the eukaryotic expression vector pCEXV-3. The plasmid DNA for the H1 receptor is designated pcEXV-H1, and was deposited on Nov. […] This construct was transfected into COS-7 cells by the DEAE-dextran method.

human prostate tissue = assay: Antagonism of phenylephrine-induced contraction of human prostatic tissue; conditions: pA2, phenylephrine-induced contraction, dose-ratio method
Experimental: An index of this efficacy can be obtained by determining the potency of α1 antagonists to antagonize the contraction of human prostatic tissue induced by an α1 agonist “in vitro”.
Prostatic adenomas were obtained at the time of surgery from patients with symptomatic BPH. […] Isometric tension was measured with a Grass Instrument FT03 force transducer interfaced with a computer. Tissue strips were contracted with varying concentrations of phenylephrine after incubating for 20 minutes in the absence and presence of at least three different concentrations of antagonist. Dose-response curves for phenylephrine were constructed, and the antagonist potency (pA2) was estimated by the dose-ratio method.

human 5HT2 receptor = molecular target: T4, human 5HT2 receptor (Homo sapiens, UniProt P28223); assay: [3H]ketanserin competition binding, 5HT2 receptor
T4 construct: host or cells: COS-7 (DEAE-dextran); the same paragraph also names a deposited line L-NGC-5HT2
Experimental: The coding sequence of the human 5HT2 receptor was obtained from a human brain cortex cDNA library, and cloned into the cloning site of pCEXV-3 eukaryotic expression vector. This construct was transfected into COS-7 cells by the DEAE-dextran method. […] Nonspecific binding was defined by the addition of 10 μM mianserin.

human D2 receptor = molecular target: T5, human D2 receptor (Homo sapiens, UniProt P14416); assay: [3H]spiperone binding, dopamine D2 receptor
T5 construct: host or cells: COS-7, transient, DEAE-dextran
T5 sequence (P14416 whole entry): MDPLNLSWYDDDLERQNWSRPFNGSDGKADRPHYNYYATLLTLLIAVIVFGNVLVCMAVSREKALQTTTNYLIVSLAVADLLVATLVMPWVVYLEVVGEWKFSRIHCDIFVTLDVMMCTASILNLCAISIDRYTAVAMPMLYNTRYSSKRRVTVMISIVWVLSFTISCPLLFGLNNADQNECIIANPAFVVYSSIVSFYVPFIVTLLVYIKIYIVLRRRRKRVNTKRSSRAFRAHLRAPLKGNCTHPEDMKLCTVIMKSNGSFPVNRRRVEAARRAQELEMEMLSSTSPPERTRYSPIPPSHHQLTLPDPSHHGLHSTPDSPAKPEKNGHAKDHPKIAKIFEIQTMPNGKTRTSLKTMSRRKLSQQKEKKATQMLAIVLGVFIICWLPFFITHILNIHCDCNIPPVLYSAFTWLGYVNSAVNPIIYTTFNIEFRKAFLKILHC
Experimental: The potency of α1 antagonists at the D2 receptor was determined using membrane preparations from COS-7 cells transfected with the gene encoding the human D2 receptor. The coding region for the human D2 receptor was obtained from a human striatum cDNA library, and cloned into the cloning site of PCDNA 1 eukariotic expression vector. The plasmid DNA for the D2 receptor is designated pcEXV-D2, and was deposited on Nov. […] This construct was transfected into COS-7 cells by the DEAE-dextran method. […] The cell lysates were incubated with [3H]spiperone (2 nM), using 10 μM (+)Butaclamol to determine nonspecific binding.

human 5HT1Dβ receptor = molecular target: T6, human 5HT1Dβ receptor (Homo sapiens, UniProt P28222); assay: [3H]serotonin competition binding, 5HT1Dβ receptor
T6 construct: host or cells: LM(tk-) clonal cell line Ltk-11
T6 sequence (P28222 whole entry): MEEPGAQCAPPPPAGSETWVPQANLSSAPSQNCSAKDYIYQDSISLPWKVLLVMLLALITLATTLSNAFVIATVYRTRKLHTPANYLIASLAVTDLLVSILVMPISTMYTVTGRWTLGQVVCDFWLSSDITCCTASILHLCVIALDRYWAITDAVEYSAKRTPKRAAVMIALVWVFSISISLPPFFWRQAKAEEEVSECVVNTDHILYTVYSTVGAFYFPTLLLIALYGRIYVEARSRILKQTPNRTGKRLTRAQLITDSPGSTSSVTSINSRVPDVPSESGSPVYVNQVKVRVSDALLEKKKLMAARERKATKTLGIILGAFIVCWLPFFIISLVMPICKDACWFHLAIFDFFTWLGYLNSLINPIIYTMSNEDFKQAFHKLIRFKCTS
Experimental: as §1

human 5HT1F receptor = molecular target: T7, human 5HT1F receptor (Homo sapiens, UniProt P30939); assay: [3H]serotonin competition binding, 5HT1F receptor
T7 construct: host or cells: LM(tk-) clonal cell line L-5-HT1F
T7 sequence (P30939 1-366): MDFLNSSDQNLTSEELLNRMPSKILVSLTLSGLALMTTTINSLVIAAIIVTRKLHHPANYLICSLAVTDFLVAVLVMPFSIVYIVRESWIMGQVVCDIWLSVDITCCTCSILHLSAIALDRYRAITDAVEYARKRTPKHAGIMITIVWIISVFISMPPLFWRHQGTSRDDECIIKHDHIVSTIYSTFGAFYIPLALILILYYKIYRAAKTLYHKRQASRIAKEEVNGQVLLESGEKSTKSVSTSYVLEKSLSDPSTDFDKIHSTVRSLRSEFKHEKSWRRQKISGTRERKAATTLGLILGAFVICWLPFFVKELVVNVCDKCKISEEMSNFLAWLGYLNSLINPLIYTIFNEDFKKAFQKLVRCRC
Experimental: as §1

human 5HT1E receptor = molecular target: T8, human 5HT1E receptor (Homo sapiens, UniProt P28566); assay: [3H]serotonin competition binding, 5HT1E receptor
T8 construct: host or cells: LM(tk-) clonal cell line 5HT1E-7
Experimental: as §1

calcium channels = molecular target: T9, calcium channels (Rattus norvegicus, UniProt P22002); assay: [3H]nitrendipine competition binding, calcium channels, rat cardiac muscle membranes; conditions: Table 2, rat cardiac muscle membranes; read-out: Calcium Channel (pK1) (converted)
T9 construct: from tissue; host or cells: rat cardiac muscle membranes
T9 sequence (P22002 whole entry, other chains not shown): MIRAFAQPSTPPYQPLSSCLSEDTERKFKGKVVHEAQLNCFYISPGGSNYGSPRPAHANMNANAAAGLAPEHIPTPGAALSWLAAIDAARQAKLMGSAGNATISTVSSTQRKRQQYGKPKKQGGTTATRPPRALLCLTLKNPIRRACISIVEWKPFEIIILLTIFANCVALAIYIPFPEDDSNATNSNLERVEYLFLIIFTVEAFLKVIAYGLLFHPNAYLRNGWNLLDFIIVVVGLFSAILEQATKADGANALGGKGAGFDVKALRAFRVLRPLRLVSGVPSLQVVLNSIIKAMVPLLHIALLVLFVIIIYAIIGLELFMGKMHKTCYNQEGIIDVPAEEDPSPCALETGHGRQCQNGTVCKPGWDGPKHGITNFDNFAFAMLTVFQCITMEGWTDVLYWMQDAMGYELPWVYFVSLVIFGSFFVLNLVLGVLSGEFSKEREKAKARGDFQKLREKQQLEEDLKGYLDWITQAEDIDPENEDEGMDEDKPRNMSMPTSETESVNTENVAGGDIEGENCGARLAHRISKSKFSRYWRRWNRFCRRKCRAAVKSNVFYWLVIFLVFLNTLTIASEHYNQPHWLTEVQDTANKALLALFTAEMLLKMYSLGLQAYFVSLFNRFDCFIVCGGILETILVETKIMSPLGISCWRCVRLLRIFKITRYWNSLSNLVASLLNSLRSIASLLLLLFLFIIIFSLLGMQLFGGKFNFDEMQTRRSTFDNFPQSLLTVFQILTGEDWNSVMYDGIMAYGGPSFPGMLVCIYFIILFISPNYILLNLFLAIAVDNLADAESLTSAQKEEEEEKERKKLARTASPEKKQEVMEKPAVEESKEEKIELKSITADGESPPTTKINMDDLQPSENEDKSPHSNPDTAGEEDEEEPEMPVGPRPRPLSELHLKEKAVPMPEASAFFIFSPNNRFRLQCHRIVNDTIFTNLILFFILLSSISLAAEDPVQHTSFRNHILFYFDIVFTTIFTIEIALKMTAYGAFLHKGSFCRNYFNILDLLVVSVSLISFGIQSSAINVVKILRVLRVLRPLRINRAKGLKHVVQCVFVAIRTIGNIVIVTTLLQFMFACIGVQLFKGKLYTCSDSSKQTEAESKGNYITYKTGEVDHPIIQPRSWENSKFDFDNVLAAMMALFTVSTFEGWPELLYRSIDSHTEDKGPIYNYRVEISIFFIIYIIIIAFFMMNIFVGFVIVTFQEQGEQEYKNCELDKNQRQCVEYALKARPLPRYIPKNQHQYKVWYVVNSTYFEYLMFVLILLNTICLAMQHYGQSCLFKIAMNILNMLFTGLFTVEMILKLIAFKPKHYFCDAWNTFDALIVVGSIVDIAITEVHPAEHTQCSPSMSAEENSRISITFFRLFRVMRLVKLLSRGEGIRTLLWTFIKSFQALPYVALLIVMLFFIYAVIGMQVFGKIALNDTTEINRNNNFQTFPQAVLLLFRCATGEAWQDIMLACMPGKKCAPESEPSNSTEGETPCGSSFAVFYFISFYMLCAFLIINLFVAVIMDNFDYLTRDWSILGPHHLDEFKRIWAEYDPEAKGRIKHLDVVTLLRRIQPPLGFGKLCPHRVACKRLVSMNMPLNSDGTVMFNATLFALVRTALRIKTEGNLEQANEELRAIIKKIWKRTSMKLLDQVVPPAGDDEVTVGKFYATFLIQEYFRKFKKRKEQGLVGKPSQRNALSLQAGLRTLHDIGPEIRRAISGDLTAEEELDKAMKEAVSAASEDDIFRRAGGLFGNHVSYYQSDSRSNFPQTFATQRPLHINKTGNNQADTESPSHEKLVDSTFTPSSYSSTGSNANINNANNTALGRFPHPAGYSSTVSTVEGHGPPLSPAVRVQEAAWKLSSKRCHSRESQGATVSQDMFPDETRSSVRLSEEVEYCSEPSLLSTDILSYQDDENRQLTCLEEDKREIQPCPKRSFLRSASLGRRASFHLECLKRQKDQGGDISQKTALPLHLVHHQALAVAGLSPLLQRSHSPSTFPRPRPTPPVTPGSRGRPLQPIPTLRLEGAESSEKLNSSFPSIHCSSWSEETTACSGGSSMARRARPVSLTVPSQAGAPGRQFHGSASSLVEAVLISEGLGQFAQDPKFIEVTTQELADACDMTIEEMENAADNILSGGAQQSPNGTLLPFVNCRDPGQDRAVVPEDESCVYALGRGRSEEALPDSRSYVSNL
T9 sequence (P54290 25-944 partner limits assumed, other chains not shown): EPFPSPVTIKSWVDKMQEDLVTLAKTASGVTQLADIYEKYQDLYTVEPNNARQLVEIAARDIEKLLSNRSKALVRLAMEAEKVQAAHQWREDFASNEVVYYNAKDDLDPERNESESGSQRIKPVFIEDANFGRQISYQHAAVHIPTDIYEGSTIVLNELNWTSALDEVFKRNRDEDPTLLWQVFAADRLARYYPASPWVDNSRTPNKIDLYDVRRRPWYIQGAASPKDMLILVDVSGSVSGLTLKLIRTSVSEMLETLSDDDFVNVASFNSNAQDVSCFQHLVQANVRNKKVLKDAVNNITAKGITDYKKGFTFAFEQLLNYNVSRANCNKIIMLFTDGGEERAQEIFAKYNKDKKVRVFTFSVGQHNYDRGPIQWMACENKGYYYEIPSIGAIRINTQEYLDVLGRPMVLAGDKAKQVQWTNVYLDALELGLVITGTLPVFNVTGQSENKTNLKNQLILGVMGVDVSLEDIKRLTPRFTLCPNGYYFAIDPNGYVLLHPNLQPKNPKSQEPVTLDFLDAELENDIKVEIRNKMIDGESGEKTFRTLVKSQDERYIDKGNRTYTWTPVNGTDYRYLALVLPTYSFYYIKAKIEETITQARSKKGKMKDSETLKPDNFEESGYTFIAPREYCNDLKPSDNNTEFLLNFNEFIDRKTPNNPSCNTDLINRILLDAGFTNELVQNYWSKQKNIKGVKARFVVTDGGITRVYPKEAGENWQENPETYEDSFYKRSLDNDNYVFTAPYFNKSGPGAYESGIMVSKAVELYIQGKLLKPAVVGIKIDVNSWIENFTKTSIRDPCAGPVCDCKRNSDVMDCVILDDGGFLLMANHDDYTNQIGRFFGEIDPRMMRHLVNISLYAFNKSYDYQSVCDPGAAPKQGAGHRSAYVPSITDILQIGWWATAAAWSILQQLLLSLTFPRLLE
T9 sequence (P54290 945-1091 partner limits assumed, other chains not shown): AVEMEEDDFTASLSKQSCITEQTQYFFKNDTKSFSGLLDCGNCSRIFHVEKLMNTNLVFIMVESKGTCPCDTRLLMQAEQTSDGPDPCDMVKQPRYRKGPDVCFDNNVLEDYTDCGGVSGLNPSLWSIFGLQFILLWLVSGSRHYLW
Experimental: Briefly, the tissue was minced and homogenized in 50 mM Tris-HCl (pH 7.4) containing 0.1 mM phenylmethylsulfonyl fluoride. The homogenates were centrifuged at 1000 g for 15 minutes, the resulting supernatant was centrifuged at 45,000 g for 15 minutes. The 45,000 g pellet was suspended in buffer and centrifuged a second time.

[3] = test system: Sprague-Dawley normotensive rats; assay: Rat orthostatic hypotension model; assay type: in vivo; conditions: for BP fall / orthostatic fall in BP: i.v.; for orthostatic fall in BP: second tilt
Experimental: Adult male Sprague-Dawley normotensive rats were anesthetized with sodium pentobarbital (45 mg/kg, i.v.). The femoral vein and artery of the right hindlimb were cannulated for drug administration and blood pressure monitoring, respectively. Heart rate was determined by a cardiotachometer triggered by the blood pressure pulse. The rats were secured in the supine position to a board that could be tilted 90 degrees. When blood pressure and heart rate had stabilized, the rats were subjected to a 90 degree vertical (head up) tilt for 60 seconds. Changes in blood pressure and heart rate from pre-tilt levels were monitored continuously. The rats were returned to the supine position and blood pressure and heart rate were allowed to stabilize. […] When blood pressure had stabilized, the rats were subjected to a second tilt and blood pressure and heart rate were recorded as described above. […] Data from the second tilt are used in statistical analysis.

5-α-reductase = conditions: BPH patients; cited from earlier work

SMILES: COC(=O)C1=C(C)NC(C)=C(C(=O)NCCCN2CCC(c3ccccc3)(c3ccccc3)CC2)C1c1ccc([N+](=O)[O-])cc1.Cl.O (stereo not drawn) [Compound 2, 2,6-Dimethyl-4-(4-nitrophenyl)-1,4-dihydropyridine-3,5-dicarboxylic acid N-[3-(4,4-diphenylpiperidin-1-yl)-propyl]amide methyl ester hydrochloride hydrate]
- Ki (human 5HT1Dα receptor): > 100 nM
- Ki [1]: 33.1 nM
- Ki [2]: 69.2 nM
- Human Prostate (pA) (human prostate tissue): 8.94
- Ki (human 5HT2 receptor): > 1000 nM
- Ki (human D2 receptor): > 100 nM
- Ki (human 5HT1Dβ receptor): > 1000 nM
- Ki (human 5HT1F receptor): > 10000 nM
- Ki (human 5HT1E receptor): > 10000 nM

SMILES: O=C(CCCN1CCC(NC(=O)c2ccccc2)CC1)c1ccc(Cl)cc1 (as salt: HCl) [Example 4, 1-[3-(4-chlorobenzoyl)propyl]-4-benzamidopiperidine]
- melting point: 243 to 244 °C

- Ki (calcium channels): 26900 nM
- BP fall ([3]; Dose 1, 10 ug/kg): +
- orthostatic fall in BP ([3]; Dose 1, 10 ug/kg): +
- BP fall ([3]; Dose 2, 100 ug/kg): ++
- orthostatic fall in BP ([3]; Dose 2, 100 ug/kg): ++ or +++
- BP fall ([3]; Dose 3, 1000 ug/kg): +++
- orthostatic fall in BP ([3]; Dose 3, 1000 ug/kg): ++ or +++
SMILES: COc1cc2nc(N3CCN(C(=O)c4ccco4)CC3)nc(N)c2cc1OC [Prazosin]
- Human Prostate (pA) (human prostate tissue): 9.08
- orthostasis (Table 3) ([3]; doses 10, 100, 1000 ug/kg): consistently cause orthostasis at the lowest dose

SMILES: CC(C)(C)NC(=O)[C@H]1CC[C@H]2[C@@H]3CC[C@H]4NC(=O)C=C[C@]4(C)[C@H]3CC[C@]12C [Proscar]
- patients in whom effective (5-α-reductase): 30%
- period required to show results (5-α-reductase): up to 6 months

SMILES: COc1cc2nc(N3CCN(C(=O)C4CCCO4)CC3)nc(N)c2cc1OC (stereo not drawn) [Terazosin, 2 [4-(Tetrahydro-2-furoyl)piperazinyl]-4-amino-6,7-dimethoxyquinazoline hydrochloride, reference compound]
- Ki [1]: 9120 nM
- Human Prostate (pA) (human prostate tissue): 7.30
- Ki (human D2 receptor; Table 2, cloned human receptor, read-out: Dopamine D2 (pK1)): > 10000 nM
